Some test systems named below: A549 NSCLC; HOP-62 NSCLC; MOLT-4 leukemia; NCI-H23 lung; NCI-H460 lung; OVCAR-4 ovarian; PC-3 prostate; SK-MEL-28 melanoma; SW-620 colon; UACC-62 melanoma; HL-60(TB) leukemia; RXF 393 renal.
Test in all cases: growth of human tumour cells (NCI), 48 h

We go through 13 compounds from PubChem BioAssay (NCI).

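Five concentrations, 48 hours, 96-well plates. Definition used: TGI = concentration required for complete inhibition of growth.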

Regarding `Cc1ccc(S(=O)(=O)N2CCCC2C(=O)O[C@H]2CC[C@H]3CC=C[C@H]32)cc1` (stereo partly drawn), the TGI is over 31.6 µM in the test on A549 NSCLC; over 100 µM in the test on HOP-62 NSCLC; 33.4 µM in the test with MOLT-4 leukemia; over 100 µM in the test on NCI-H23 lung; 91.4 µM in the test with NCI-H460 lung; over 100 µM in the test with OVCAR-4 ovarian. Moreover, the TGI in the test on PC-3 prostate was over 100 µM; in the test on SK-MEL-28 melanoma, 96.7 µM; with SW-620 colon, over 100 µM; with UACC-62 melanoma, over 100 µM.

As for `O=C(Nc1ccccc1F)c1cc2ccc(O)cc2oc1=Nc1cccc(C(F)(F)F)c1`, the TGI with A549 NSCLC is over 100 µM; in the test on HL-60(TB) leukemia it was 4.84 µM; with HOP-62 NSCLC, 53.7 µM; in the test with MOLT-4 leukemia, 67.8 µM; in the test with NCI-H23 lung it was 4.44 µM; in the test on NCI-H460 lung, over 100 µM. Moreover, the TGI with OVCAR-4 ovarian is 12.9 µM; in the test with PC-3 prostate, over 100 µM; in the test with SK-MEL-28 melanoma it was 40.7 µM; with SW-620 colon, over 100 µM; in the test with UACC-62 melanoma, 21 µM.

Turning to `CCOC(=O)c1cnc(-n2[nH]c3c(c2=O)CCCC3)[nH]c1=O`, the TGI with A549 NSCLC, with HL-60(TB) leukemia, with MOLT-4 leukemia, in the test on NCI-H23 lung, with NCI-H460 lung and in the test on OVCAR-4 ovarian was over 100 µM in each case. Moreover, the TGI in the test on PC-3 prostate was over 100 µM; in the test on SK-MEL-28 melanoma, over 100 µM; with SW-620 colon, over 100 µM; in the test with UACC-62 melanoma it was 95.4 µM.

Turning to `Cc1cn(C2CC(N)C(C(=O)O)O2)c(=O)[nH]c1=O` (stereo not drawn), the TGI with A549 NSCLC, in the test with HL-60(TB) leukemia, in the test with HOP-62 NSCLC, with MOLT-4 leukemia, with NCI-H23 lung and with NCI-H460 lung was over 100 µM each time. Moreover, the TGI in the test on OVCAR-4 ovarian, in the test on PC-3 prostate, in the test with SW-620 colon and in the test on UACC-62 melanoma was over 100 µM in each case.

`COc1cc([C@@H]2c3cc4c(cc3[C@@H](NC(=O)c3cccc(F)c3)C3COC(=O)[C@@H]32)OCO4)cc(OC)c1O` (stereo partly drawn): the TGI in the test on A549 NSCLC worked out at 2.62 µM; in the test on HL-60(TB) leukemia, 2.3 µM; in the test with HOP-62 NSCLC it was 1.94 µM; in the test with MOLT-4 leukemia it was 1.06 µM; in the test with NCI-H23 lung it was 3.18 µM; in the test with NCI-H460 lung, 7.52 µM. In addition, the TGI in the test with OVCAR-4 ovarian is over 100 µM; in the test with RXF 393 renal it was 37.5 µM; in the test with SK-MEL-28 melanoma, 56.5 µM; with SW-620 colon it was 16.2 µM; in the test on UACC-62 melanoma, 3.7 µM.

Take `CC(=O)NNc1nc(C)c(C(/C=C/c2ccc(Cl)cc2)=N/NC(=O)C[N+](C)(C)C)s1`: the TGI in the test on A549 NSCLC, in the test on HL-60(TB) leukemia, with MOLT-4 leukemia, in the test with NCI-H23 lung, in the test on NCI-H460 lung and in the test with OVCAR-4 ovarian was over 100 µM throughout. Further, the TGI in the test with RXF 393 renal, with SK-MEL-28 melanoma, in the test with SW-620 colon and in the test on UACC-62 melanoma was over 100 µM in each case.

As to `COc1ccc(Cc2nccc3cc(OC)c(OC)cc23)cc1OC`, the TGI in the test on A549 NSCLC, in the test with HL-60(TB) leukemia, in the test with HOP-62 NSCLC, with MOLT-4 leukemia, with NCI-H23 lung and in the test with NCI-H460 lung was over 100 µM each time. For the same compound, the TGI with OVCAR-4 ovarian, in the test on PC-3 prostate, in the test on SK-MEL-28 melanoma, with SW-620 colon and in the test on UACC-62 melanoma was over 100 µM each time.

As for `[N-]=[N+]=NC(CBr)c1cn([C@H]2C[C@H](O)[C@@H](CO)O2)c(=O)[nH]c1=O` (stereo partly drawn), the TGI in the test with A549 NSCLC, with HL-60(TB) leukemia, in the test on HOP-62 NSCLC, with MOLT-4 leukemia, in the test with NCI-H23 lung and in the test with NCI-H460 lung was over 100 µM each time. For the same compound, the TGI with RXF 393 renal, in the test with SK-MEL-28 melanoma, with SW-620 colon and in the test with UACC-62 melanoma was over 100 µM each time.

On to `CC(C)C(/C=C/c1ccc(Br)cc1)=N\NC(N)=O`, for which the TGI in the test with A549 NSCLC, with HL-60(TB) leukemia, in the test with HOP-62 NSCLC, in the test with MOLT-4 leukemia, in the test with NCI-H23 lung and in the test on NCI-H460 lung was over 100 µM each time. For the same compound, the TGI with OVCAR-4 ovarian, in the test with RXF 393 renal, in the test on SK-MEL-28 melanoma, with SW-620 colon and in the test with UACC-62 melanoma was over 100 µM in each case.

In the case of `Nc1nc(Cl)c2nnn(CC3CCC(CO)C3)c2n1` (stereo not drawn), the TGI in the test on A549 NSCLC, with HOP-62 NSCLC, in the test with OVCAR-4 ovarian, in the test with PC-3 prostate, in the test with RXF 393 renal and in the test on SK-MEL-28 melanoma was over 100 µM each time. For the same compound, the TGI with SW-620 colon and with UACC-62 melanoma was over 100 µM each time.

As for `CSc1nc2[nH]c(=O)c(C)nc2c(=O)[nH]1`, the TGI in the test on A549 NSCLC, in the test with HL-60(TB) leukemia, with HOP-62 NSCLC, in the test with MOLT-4 leukemia, in the test on NCI-H23 lung and in the test on NCI-H460 lung was over 100 µM each time. Moreover, the TGI in the test on OVCAR-4 ovarian, in the test on RXF 393 renal, in the test with SK-MEL-28 melanoma, in the test on SW-620 colon and in the test with UACC-62 melanoma was over 100 µM throughout.

For the compound `O=C(CCN1CCOCC1)Nc1ccc2sc3ccccc3c(=O)c2n1`, the TGI in the test with A549 NSCLC, in the test with HL-60(TB) leukemia, in the test with HOP-62 NSCLC, with NCI-H23 lung, with NCI-H460 lung and in the test with OVCAR-4 ovarian was over 100 µM each time. The TGI in the test with PC-3 prostate, with SK-MEL-28 melanoma, with SW-620 colon and in the test on UACC-62 melanoma was over 100 µM throughout.

`CCCCS(=O)(=O)Nc1ccc(Nc2c3ccccc3nc3ccccc23)c(OC)c1`: the TGI in the test on A549 NSCLC came to 7.07 µM; in the test with HOP-62 NSCLC it was 10.7 µM; with MOLT-4 leukemia, 3.97 µM; with NCI-H23 lung, 11.3 µM; with NCI-H460 lung it was 5.79 µM; with OVCAR-4 ovarian it was 18.8 µM. In addition, the TGI in the test with RXF 393 renal was determined as 11 µM; with SK-MEL-28 melanoma it was 16.4 µM; in the test with SW-620 colon, 14.2 µM; in the test on UACC-62 melanoma it was 7.48 µM.
